# Test results reported in article PMC12040169 (PLOS Biology, 2025).
# Assay: in vitro
# Conditions: human, hela cells, % viability
row,SMILES,"viability at 28.5 h, 10 µM [%]"
1,COC(=O)Cn1c(CN2CCN(c3ccccc3F)CC2)nc2c1c(=O)n(C)c(=O)n2C [CBK269444],93.1
2,O=C(NCCN1CCOCC1)NC(=O)c1ccc(Cl)cc1 [CBK269446],88.2
3,COC(=O)c1c(NC(=O)CC2NCCNC2=O)sc(C)c1C (stereo not drawn) [CBK269447],92.1
4,CC1CN(Cc2nc3c(c(=O)[nH]c(=O)n3C)n2Cc2cccc(Cl)c2)CC(C)O1 (stereo not drawn) [CBK269450],105
5,CCCc1cc(C(=O)OC)c(NC(=O)CC2Nc3ccccc3NC2=O)s1 (stereo not drawn) [CBK269451],107
6,CN1CCN(c2nc3c(c(=O)n(C)c(=O)n3C)n2CCSc2nc3ccccc3o2)CC1 [CBK269452],90
7,CCOC(=O)Cn1c(CN2CCC(Cc3ccccc3)CC2)nc2c1c(=O)n(C)c(=O)n2C [CBK269454],89.8
8,N#Cc1nc(/C=C/c2cccs2)oc1NCCCn1ccnc1 [CBK269455],84.1
9,COc1cc(Cl)c(C)cc1NC(=O)c1ncn(-c2ccccc2)n1 [CBK269456],101
10,Cc1cccc(/C(C#N)=C\c2cn(CC(=O)O)c3ccccc23)c1 [CBK269457],110
11,Cc1cc(Nc2ccccc2C)c2cc(C(=O)O)ccc2n1 [CBK269458C],103
12,O=C(NCc1ccco1)NC(=O)c1ccc(Cl)cc1 [CBK269461],95.8
13,COc1ccc(NC(=O)NC(=O)c2ccc(Cl)cc2)c(OC)c1 [CBK269462],93.1
14,FC(F)(F)c1cccc(OCc2nnn[nH]2)c1 [CBK269466],88.4
15,O=C(CSc1nc(O)cc(O)n1)Nc1ccc(I)cc1 [CBK269467],103
16,CS(=O)(=O)c1ccccc1S(=O)(=O)N1CCN(c2nc3ccccc3s2)CC1 [CBK269468],97.7
17,Cn1c(=O)[nH]c(=O)c2c1nc(SCCN1CCCCC1)n2CCCc1ccccc1 [CBK269469],91.7
18,CC12CCC(C(=O)O)(c3nc4c(ccc5ncccc54)nc31)C2(C)C (stereo not drawn) [CBK269470],91.1

row,SMILES,"viability at 28.5 h, 10 µM [%]"
1,COc1cc(NC(=O)CS(=O)(=O)c2ccccc2)c(OC)cc1Cl [CBK269471],86.7
2,Clc1ccc(OCc2n[nH]c(-c3ccccn3)n2)cc1 [CBK269472],90.2
3,Fc1ccc(OCc2nnn[nH]2)c(F)c1 [CBK269473],99.9
4,Cc1ccc(SCC(=O)NCc2nc(-c3ccccc3)no2)cc1 [CBK269474],102
5,NC(=O)COc1ccc(/C=C/c2cc(C(F)(F)F)[nH]c(=O)n2)cc1 [CBK269475],90.6
6,N#Cc1c(NC(=O)CSc2ncnc3c2cnn3-c2ccccc2)sc2c1CCCC2 [CBK269478],92.6
7,COc1ccc(S(=O)(=O)NC(C)C(=O)Nc2cc(Cl)ccc2OC)cc1 (stereo not drawn) [CBK269479],104
8,O=C(NCc1cccnc1)C(=O)Nc1ccc(F)cc1F [CBK269481],101
9,Cc1ccc(NC(=O)Nc2ccc(F)cc2)cc1S(=O)(=O)N(C)C [CBK269482],92.8
10,CC(C)(C)Nc1nc(OCC#N)nc(N2CCCCC2)n1 [CBK269483],97.2
11,CS(=O)(=O)c1ncc(Cl)c(C(=O)N(Cc2ccccc2)c2ccccn2)n1 [CBK269489],95
12,O=S(=O)(Nc1ccccn1)N1CCCCC1 [CBK269490],92.3
13,Cc1c(C(=O)Nc2sc3c(c2C(=O)NCc2cccnc2)CCC3)oc2ccccc12 [CBK269491],87.8
14,COc1ccc(C)cc1S(=O)(=O)N(C)CC(=O)Nc1cccc(Cl)c1 [CBK269493],88.5
15,c1ccc2c(OCc3nnn[nH]3)cccc2c1 [CBK269495],103
16,CC1(C)C2CCC1(CS(=O)(=O)N1CCC(C(N)=O)CC1)C(=O)C2 (stereo not drawn) [CBK269499],102
17,CCN(CC(=O)NCc1cccnc1)S(=O)(=O)c1ccc(F)cc1 [CBK269503],85.3
18,CN1CCN(C(=O)C2CCN(S(=O)(=O)c3ccc4ccccc4c3)CC2)CC1 [CBK269504],88.1
